Measured values reported in BindingDB's records for doi:10.1016/j.bmcl.2003.08.064 (Abbott Laboratories, 2003).

Assays:
[1] = target: T1, Tyrosine-protein phosphatase non-receptor type 2 (Homo sapiens, UniProt P17706); test: PTP1B and TCPTP Inhibition Assay; conditions: pH 7.5; 22 °C
T1 sequence (P17706 whole entry): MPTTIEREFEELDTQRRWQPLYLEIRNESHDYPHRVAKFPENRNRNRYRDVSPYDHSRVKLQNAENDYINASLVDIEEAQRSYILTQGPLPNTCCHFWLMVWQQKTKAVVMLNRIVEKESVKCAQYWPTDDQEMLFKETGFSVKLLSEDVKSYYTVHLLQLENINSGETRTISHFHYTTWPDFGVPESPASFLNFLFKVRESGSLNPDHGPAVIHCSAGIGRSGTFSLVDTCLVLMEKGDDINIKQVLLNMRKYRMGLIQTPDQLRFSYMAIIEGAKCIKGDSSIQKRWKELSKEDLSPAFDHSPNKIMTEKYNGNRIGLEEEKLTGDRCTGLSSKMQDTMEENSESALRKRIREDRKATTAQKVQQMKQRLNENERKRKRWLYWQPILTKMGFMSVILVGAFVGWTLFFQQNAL
Method: (§1) For each concentration of test compound or DMSO control, the initial rates were used to fit the rectangular hyperbola of Michaelis-Menten by nonlinear regression analysis. The ratio of the apparent Km/Vmax vs inhibitor concentration was plotted, and the Ki was calculated by linear regression to be the negative X-intercept.

[2] = target: T2, Tyrosine-protein phosphatase non-receptor type 1 [1-298] (Homo sapiens, UniProt P18031); test: PTP1B and TCPTP Inhibition Assay; conditions: pH 7.5; 22 °C
T2 construct: 1-298
T2 sequence (P18031 whole entry): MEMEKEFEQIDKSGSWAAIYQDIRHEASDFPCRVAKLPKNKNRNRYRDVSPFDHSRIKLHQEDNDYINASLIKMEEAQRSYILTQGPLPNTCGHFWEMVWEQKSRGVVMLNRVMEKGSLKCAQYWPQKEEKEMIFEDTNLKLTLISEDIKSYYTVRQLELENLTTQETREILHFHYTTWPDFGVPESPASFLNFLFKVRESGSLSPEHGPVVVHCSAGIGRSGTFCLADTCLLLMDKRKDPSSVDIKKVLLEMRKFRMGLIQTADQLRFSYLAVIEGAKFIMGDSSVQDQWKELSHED
Method: as §1

Ki [1] [µM]	Compound	Ki [2] [µM]
65	CCc1cc(CC(NC(C)=O)C(=O)NCCCCOc2cccc(O)c2C(=O)OC)ccc1N(C(=O)C(=O)O)c1ccccc1C(=O)O (centres undefined)	
> 200	COC(=O)c1c(O)cccc1OCCCCNC(=O)[C@H](Cc1ccc(OCC(=O)O)cc1)NC(=O)OC(C)(C)C	
182	COC(=O)c1c(O)cccc1OCCCCNC(=O)[C@H](Cc1ccc(OCC(=O)O)c(O)c1)NC(C)=O (racemic) [2-{4-[2-acetamido-2-({4-[3-hydroxy-2-(methoxycarbonyl)phenoxy]butyl}carbamoyl)ethyl]-2-hydroxyphenoxy}acetic acid]	
	COC(=O)c1c(O)cccc1OCCCCNC(=O)[C@H](Cc1ccc(C=CC(=O)O)cc1)NC(=O)OC(C)(C)C [(2Z)-3-{4-[(2S)-2-{[(tert-butoxy)carbonyl]amino}-2-({4-[3-hydroxy-2-(methoxycarbonyl)phenoxy]butyl}carbamoyl)ethyl]phenyl}prop-2-enoic acid]	> 200
